Molecules are shown by their SMILES.

In the first series the test system is Mycobacterium smegmatis MC^2155 strain. The series can be described thus: Anti-mycobacterial growth inhibition assay (turbidometry, 96 well plate). It counts as cell-based. Particulars: Mycolicibacterium smegmatis, ATCC14468|MC^2155, 32 h. Here is the method:
Anti-Mycobacterial Activity Assay:
Anti-mycobacterial activity of the synthesized compounds was performed with Mycobacterium smegmatis MC^2155 strain by performing a growth inhibition assay by agar dilution followed turbidometry method. The assay was semi-throughput and conducted in a 96 well plate (sterile). Isolated single colonies of M. smegmatis MC^2 155 (ATCC 14468) grown on 7H10 agar plate were grown overnight in Middlebrook 7H9 medium (0.47% Middlebrook 7H9 broth base, 10% ADS, 0.2% glycerol, and 0.1% Tween-80) to mid exponential phase at 37° C. When the OD of this culture reached approximately 0.8, a secondary culture was inoculated in 5 ml Middlebrook 7H9 medium. The secondary culture was incubated overnight and allowed to grow at 37° C. to early log phase (OD600≈0.3). For the anti-mycobacterial assay, 98 μl of 1:1000-folds dilution of secondary culture was dispensed into 96-well microtiter plate per well along with 2 μl of test compound in triplicate. 240 μl of sterile water were added to each well of the peripheral rows of 96-well plate to minimize media evaporation during assay incubation. The final concentration of the test compound in each well was 30 μM. Bacterial growth was assessed after 32 hours of incubation by measuring turbidity at 600 nm OD600 values using TECAN Infinite 200 PRO™ (Tecan Instruments, Switzerland). Depending upon the percentage of growth, the percentage of inhibition was calculated at the standard concentration of 30 μM. Isoniazid and Rifampicin were included in every assay plate as positive controls of growth inhibition using stock solutions of INH (10 mg/mL, HiMedia) and Rifampicin (10 mg/mL, HiMedia) to achieve the final concentration of 16 μg/mL for INH and 2 μg/mL for Rifampicin. Additional controls, DMSO (solvent without compound) and medium without inoculums, were included in all the assay plates avoiding intra assay variability. The results were analyzed as the percentage of growth inhibition.
As usually defined, the inhibition is the relative decrease from the control value, in per cent. Compound `CCOC(=O)C[C@@H]1[C@@H](C(NC(=O)OC(C)(C)C)c2ccc(C(F)(F)F)cc2)CN(S(=O)(=O)c2ccc(C)cc2)[C@@H]1C(=O)OCC` (stereo partly shown) [IC] displayed an inhibition at 30 µM of 0.493%. The same measure, in the same setting: the value for `CCOC(=O)C[C@@H]1[C@@H](C(NC(=O)OC(C)(C)C)c2ccc(Br)cc2)CN(S(=O)(=O)c2ccc(C)cc2)[C@@H]1C(=O)OCC` (stereo partly shown) [IF] was 10.8%; that for `CCOC(=O)C[C@@H]1[C@@H]([C@@H](NC(=O)OC(C)(C)C)c2ccc(F)cc2)CN(S(=O)(=O)c2ccc(C)cc2)[C@@H]1C(=O)OCC` [IG, ethyl (2S,3R,4R)-4-((R)-((tert-butoxycarbonyl)amino)(4-fluorophenyl)methyl)-3-(2ethoxy-2-oxoethyl)-1-tosylpyrrolidine-2-carboxylate] was 18.2%; that for `CCOC(=O)C[C@@H]1[C@@H](C(NC(=O)OC(C)(C)C)c2ccccc2)CN(S(=O)(=O)c2ccc(C)cc2)[C@@H]1C(=O)OCC` (stereo partly shown) [IA] was 13.5%. The same measure, in the same setting: the value for `CCOC(=O)C[C@@H]1[C@@H](C(NC(=O)OC(C)(C)C)c2ccc3ccccc3c2)CN(S(=O)(=O)c2ccc(C)cc2)[C@@H]1C(=O)OCC` (stereo partly shown) [IE] was 20.7%.

The series is the same for the next values; noted with them: Mycolicibacterium smegmatis, ATCC14468|MC^2155; test compound 30 μM; bacterial growth after 32 hours by OD600; M. smegmatis MC^2 155 (ATCC 14468); read-out: % Inhibition.
On to `CCOC(=O)C[C@H]1CN(C(=O)OC(C)C)N(C(=O)OC(C)C)[C@@H]1Cc1ccc(OC)cc1` [2e, Diisopropyl (3R,4S)-4-(2-ethoxy-2-oxoethyl)-3-(4-methoxybenzyl)pyrazolidine-1,2-dicarboxylate], for which the inhibition at 30 µM was 14%.

For `CCOC(=O)C[C@H]1CN(C(=O)OC(C)C)N(C(=O)OC(C)C)[C@@H]1Cc1cc2c(cc1[N+](=O)[O-])OCO2` [2i, Diisopropyl(3R,4S)-4-(2-ethoxy-2-oxoethyl)-3-((6-nitrobenzo[d][1,3]dioxol-5-yl)methyl)pyrazolidine-1,2-dicarboxylate], the inhibition at 30 µM came out at 29.3%. Still for that read-out and setting: the value for `CCOC(=O)C[C@H]1CN(C(=O)OC(C)C)N(C(=O)OC(C)C)[C@@H]1Cc1ccc(SC)cc1` [2g, Diisopropyl (3R,4S)-4-(2-ethoxy-2-oxoethyl)-3-(4-(methylthio)benzyl)pyrazolidine-1,2-dicarboxylate] was 24.9%.

System in another series: not given
Test: not given
Conditions: not given
A word on the melting point: it is the temperature, or range, at which the solid turns liquid. The compound `Cc1ccc(S(=O)(=O)N2C[C@H]3[C@@H](C2)OC(=O)N[C@H]3c2ccc(F)cc2)cc1` displayed a melting point of 207 to 211 °C.

As for `Cc1ccc(S(=O)(=O)N2C[C@H]([C@@H](NC(=O)OC(C)(C)C)c3cccs3)[C@H](O)C2)cc1` [Ij, tert-Butyl ((R)-((3R, 4S)-4-hydroxy-1-tosylpyrrolidin-3-yl)(thiophen-2-yl)methyl) carbamate], the melting point lay in the range of 186 to 189 °C. Same read-out and setting: the value for `CCOC(=O)C[C@@H]1[C@@H](C(NC(=O)OC(C)(C)C)c2ccc(C)cc2)CN(S(=O)(=O)c2ccc(C)cc2)[C@@H]1C(=O)OCC` (stereo partly shown) was 177 to 178 °C; that for `Cc1ccc([C@H](NC(=O)OC(C)(C)C)[C@H]2CN(S(=O)(=O)c3ccc(C)cc3)C[C@H]2O)cc1` [Id, tert-butyl ((R)-((3R,4S)-4-hydroxy-1-tosylpyrrolidin-3-yl)(p-tolyl)methyl)carbamate] was 187 to 190 °C; that for `CCOC(=O)C[C@@H]1[C@@H](C(NC(=O)OC(C)(C)C)c2ccc(C(F)(F)F)cc2)CN(S(=O)(=O)c2ccc(C)cc2)[C@@H]1C(=O)OCC` (stereo partly shown) was 169 to 170 °C.

For the compound `CCOC(=O)C[C@@H]1[C@@H](C(NC(=O)OC(C)(C)C)c2ccc3ccccc3c2)CN(S(=O)(=O)c2ccc(C)cc2)[C@@H]1C(=O)OCC` (stereo partly shown), the melting point fell in the range of 160 to 161 °C. Still for that read-out and setting: the figure for `Cc1ccc(S(=O)(=O)N2C[C@H]3[C@@H](C2)OC(=O)N[C@H]3c2ccc3ccccc3c2)cc1` [Ie, (4R,4aR,7aS)-4-(naphthalen-2-yl)-6-tosylhexahydropyrrolo[3,4-e][1,3]oxazin-2(3H)-one] is 153 to 156 °C. The same measure, in the same setting: the value for `CCOC(=O)C[C@@H]1[C@@H](C(NC(=O)OC(C)(C)C)c2ccc(Br)cc2)CN(S(=O)(=O)c2ccc(C)cc2)[C@@H]1C(=O)OCC` (stereo partly shown) was 161 to 163 °C. Take `Cc1ccc(S(=O)(=O)N2C[C@H]([C@@H](NC(=O)OC(C)(C)C)c3ccc(Cl)cc3)[C@H](O)C2)cc1` [Ib, tert-butyl ((R)-(4-chlorophenyl)((3R,4S)-4-hydroxy-1-tosylpyrrolidin-3-yl)methyl)carbamate]: the melting point lay within 203 to 205 °C. In turn, `Cc1ccc(S(=O)(=O)N2C[C@H]([C@@H](NC(=O)OC(C)(C)C)c3ccccc3)[C@H](O)C2)cc1` [Ia, tert-butyl ((R)-((3R,4S)-4-hydroxy-1-tosylpyrrolidin-3-yl)(phenyl)methyl)carbamate] had a melting point of 197 to 200 °C. On the same count and under the same terms, the value for `CCOC(=O)C[C@@H]1[C@@H](C(NC(=O)OC(C)(C)C)c2ccccc2)CN(S(=O)(=O)c2ccc(C)cc2)[C@@H]1C(=O)OCC` (stereo partly shown) was 150 to 151 °C; that for `CSc1ccc([C@H](NC(=O)OC(C)(C)C)[C@H]2CN(S(=O)(=O)c3ccc(C)cc3)C[C@H]2O)cc1` [Ii, tert-Butyl ((R)-((3R, 4S)-4-hydroxy-1-tosylpyrrolidin-3-yl)(4-(methylthio)phenyl)methyl)carbamate] was 209 to 211 °C.

In turn, `CCOC(=O)C[C@@H]1[C@@H](C(NC(=O)OC(C)(C)C)c2ccc(Cl)cc2)CN(S(=O)(=O)c2ccc(C)cc2)[C@@H]1C(=O)OCC` (stereo partly shown) yielded a melting point of 155 to 156 °C.

Turning to `Cc1ccc(S(=O)(=O)N2C[C@H]([C@@H](NC(=O)OC(C)(C)C)c3ccc(C(F)(F)F)cc3)[C@H](O)C2)cc1` [Ic, tert-butyl ((R)-((3R,4S)-4-hydroxy-1-tosylpyrrolidin-3-yl)(4-(trifluoromethyl)phenyl)methyl)carbamate], the melting point is 202 to 204 °C. Still for that read-out and setting: the value for `Cc1ccc(S(=O)(=O)N2C[C@H]([C@@H](NC(=O)OC(C)(C)C)c3ccco3)[C@H](O)C2)cc1` was 136 to 139 °C; that for `CCOC(=O)C[C@@H]1[C@@H](C(NC(=O)OC(C)(C)C)c2ccc(F)cc2)CN(S(=O)(=O)c2ccc(C)cc2)[C@@H]1C(=O)OCC` (stereo partly shown) was 148 to 150 °C; that for `Cc1ccc(S(=O)(=O)N2C[C@H]3[C@@H](C2)OC(=O)N[C@H]3c2ccc(Br)cc2)cc1` [If, (4R, 4aR, 7aS)-4-(4-Bromophenyl)-6-tosylhexahydropyrrolo [3,4-e][1,3]oxazin-2(3H)-one] was 210 to 213 °C.

For the origin of these results see US9718773B2, “Substituted 5 membered heterocyclic compounds and preparation thereof” (Council of Scientific and Industrial Research, priority 2014, dated 2017).
